# In PubChem BioAssay AID1996:
# Details: buffer; pH 7.4; 200.0 µM
row,SMILES,solubility kinetic [µg/mL]
1,Cl.c1ccc2c(c1)nc(N1CCCCC1)c1ccccc12,1.8
2,O=C(Nc1cccc(S(=O)(=O)NC2=NCCC2)c1)c1ccccc1F,> 54.2
3,Cc1cccc(NC(=S)N2CCCN(c3ncccc3[N+](=O)[O-])CC2)c1,39.4
4,CCN(c1ccccc1)S(=O)(=O)c1ccc(C(=O)N(C)Cc2cccs2)cc1,20.9
5,COc1ccc(N2CCCC2=N)c(OC)c1.Cl,> 38.5
6,O=c1[nH]c2cc(S(=O)(=O)CCO)ccc2o1,32.4
7,Cc1cc(C)cc(NC(=O)Nc2cnccn2)c1,2.4
8,Cn1cc(C(=O)OCC(=O)NC2CCCC2)c2ccccc21,7.2
9,Cc1ccc(C(=O)Nc2nc3ccccc3[nH]2)cc1,2.4
10,Nc1ccc(C(=O)O)cc1S(=O)(=O)O,> 32.6
11,CC(OC(=O)/C=C/c1ccccc1)C(=O)NC1CCCCC1C (stereo unspecified),8.4
12,Cc1ccccc1C(=O)NCCNC(=O)c1cnccn1,35.7
13,O=C(NCCc1ccc(F)cc1)N[C@@H](Cc1ccccc1)C(=O)O,> 49.6
14,CN(C)S(=O)(=O)c1cc(NC(=O)COC(=O)c2nc(Cl)ccc2Cl)ccc1Cl,52.7
15,COc1ccccc1NC(=O)COC(=O)c1ccc([N+](=O)[O-])s1,5.1
16,COc1ccc(CCNC(=O)c2ccc(Cl)nc2)cc1,36.5
17,COCCCNC(=S)Nc1ccc(C)cc1,> 35.8
18,CCOc1ncccc1C(=O)OC(C)C(=O)NC1CCCCC1 (stereo unspecified),> 48.1
19,O=C(COC(=O)/C=C/c1cccc(Cl)c1)Nc1ccc(N2CCOCC2)cc1,3.2
20,COC(=O)c1nc[nH]c1C(=O)OC,> 27.6
21,CCN(CC)C(=O)Oc1ccc(NC(=O)N2CCOCC2)cc1,> 48.2
22,NS(=O)(=O)c1cccc(NC(=O)CSc2nnc(-c3ccccc3)o2)c1,> 58.6
23,COc1ccc(CN2C(=O)c3ccccc3C2=O)cc1,6
24,COc1ccc(NCC(=O)N2CCCC2)cc1Cl,38
25,COc1ccccc1-n1c(O)c(/C=C2\C=Nc3ccccc32)c(=O)[nH]c1=O,4.4

row,SMILES,solubility kinetic [µg/mL]
1,CN1CCN(c2ccc(CNC(=O)c3ccc4c(c3)OCCO4)cc2)CC1,49.7
2,Cc1c(C(=O)OCC(=O)N2CCCC2)cccc1[N+](=O)[O-],> 43.8
3,CN(CC(=O)Nc1ccccc1Cl)CC(=O)Nc1cccc2ccccc12,45.3
4,Cc1cc(NCc2cccnc2)nc(N)n1,> 32.3
5,CCCNC(=O)COCc1cc(-c2ccc3c(c2)OCO3)on1,> 47.7
6,C=CCOc1ccc(CNc2ccc3[nH]c(=O)[nH]c3c2)cc1,7.9
7,COc1ccc2nc(C)cc(Nc3ccc(C)cc3)c2c1.Cl,30.5
8,CCOc1ccc2[nH]c3c(=O)n(CCC4=CCCCC4)cnc3c2c1,10.7
9,O=C(CNC(=O)c1ccc(Cl)cc1)NCc1ccccn1,> 45.6
10,O=C(NC1CCNCC1)C1CCCCC1,> 31.5
11,Fc1ccc(CNC(=S)NCc2ccc(F)cc2)cc1,6.4
12,CSc1ccccc1NC(=O)CN(C)C(C)C(=O)NCc1ccc2c(c1)OCO2 (stereo unspecified),16
13,c1ccc(Nc2ncnc3sccc23)cc1,> 34.1
14,O=C(O)C1CCC(CNS(=O)(=O)c2ccccc2)CC1 (stereo unspecified),> 44.6
15,CCn1cc([N+](=O)[O-])c(=O)c2cc(F)c(N3CCOCC3)cc21,13.5
16,CC(C)Cc1csc(NC(=O)C(C)C)c1C(=O)O,> 40.4
17,Cc1ccccc1OCC(=O)Nc1ccncc1,> 36.3
18,Cc1ccc(C)n1-c1cc([N+](=O)[O-])ccc1-n1ccnc1,35.9
19,O=C(NC(O)C(=O)c1ccccc1)c1ccccn1 (stereo unspecified),> 38.4
20,Cc1cc2c(cc1S(=O)(=O)N(C)c1ccccc1)n(C)c(=O)n2C,> 51.8
21,Clc1c2c(nc3ccccc13)CCC2,4
22,Cc1nc2ccc(NS(=O)(=O)c3c(F)cccc3F)cc2s1,> 51.1
23,CN1CCc2c(sc(N)c2C(=O)c2ccc(Cl)cc2)C1,41.5
24,CC(C)CCC(C)NC(=O)c1ccc2nccnc2c1 (stereo unspecified),34.6
25,Fc1cccc(Cc2noc(CN3CCSCC3)n2)c1,> 44

row,SMILES,solubility kinetic [µg/mL]
1,NC(=O)c1coc(-c2ccccc2)n1,> 28.2
2,O=c1cc(O)c2c(=O)n(Cc3ccccc3)c3ccccc3c2o1,32.6
3,O=C(COc1ccc2ccc(=O)oc2c1)NC1CCCCC1,> 45.2
4,COc1ccc(/C=C/C(=O)N[C@H](C(=O)O)C(C)C)cc1,> 41.6
5,O=S(=O)(Cc1ncc(C(F)(F)F)cc1Cl)c1ccccc1,> 50.4
6,CN(CC(=O)Nc1ccc(F)cc1)C(=O)CCc1ccccc1,41.9
7,Cc1ccc2cccc(OCc3ccccc3)c2n1,20.8
8,Nc1nnc(SCc2ccccc2F)s1,> 36.2
9,CSc1ccccc1C(=O)OCC(=O)Nc1cccnc1Cl,15.6
10,Cc1c(C=O)c2ccccc2n1CCOc1ccccc1F,< 0.6
11,O=C(NCCc1nc2ccccc2[nH]1)c1ccc([N+](=O)[O-])cc1,8.7
12,O=S(=O)(N=C(NS(=O)(=O)c1ccc(Cl)cc1)c1ccccc1)c1ccc(Cl)cc1,> 70.4
13,CCOc1cc(C(=S)N2CCCC2)ccc1OCc1ccccc1,7.6
14,OC(CCN1CCOCC1)c1ccccc1 (stereo unspecified),31.3
15,Cc1ccc(S(=O)(=O)NC(=O)N(C)C2CCCCC2)cc1,> 46.6
16,CC1CC2(CCCC2)N(C(=O)N(C)C)c2ccc(F)cc21 (stereo unspecified),10.5
17,CCCC1(c2ccccc2)NC(=O)NC1=O (stereo unspecified),> 32.7
18,O=C(CNC(=O)c1ccc(F)cc1)NCc1ccccn1,> 43.1
19,Cc1cc2ncn(CS(C)(=O)=O)c2cc1C,34.3
20,O=[N+]([O-])c1ccc(NCCCN2CCOCC2)c2ncccc12,2.5
21,O=C(NCc1ccccc1)c1ccccc1-c1nc2ccccc2[nH]1,2.2
22,COc1cc(Cl)c(C)cc1NC(=O)CSC1=NCCS1,11
23,CC(C(=O)NCc1ccccc1Cl)N1C(=O)c2ccccc2C1=O (stereo unspecified),> 51.4
24,CC(=O)Nc1ccc(NC(=O)COC(=O)c2cc(S(=O)(=O)N3CCCC3)ccc2O)cc1,> 69.2
25,CC1CC(=O)Nc2ccccc2N1S(=O)(=O)c1cccc(F)c1 (stereo unspecified),30

row,SMILES,solubility kinetic [µg/mL]
1,O=C(/C=C/c1cccc(F)c1)OCC(=O)N1CCCC1,> 41.6
2,O=C(/C=C/c1cccc(C(F)(F)F)c1)OCC(=O)N1CCN(c2ccccc2)CC1,3.7
3,Cc1ccccc1C(=O)NNC(=O)c1ccc2nc[nH]c2c1,> 44.1
4,Cc1ccc(NC(=O)COC(=O)c2cccnc2Cl)cc1S(=O)(=O)N1CCOCC1,66
5,CCCOC(=O)Nc1sc2c(c1C(N)=O)CCCC2,1.3
6,COc1cccc(C(=O)OCC(=O)Nc2ccc3c(c2)OCCO3)c1,8
7,O=[N+]([O-])c1ccc(N2CCSCC2)cc1O,4.1
8,Cc1nnc(SCC(=O)N(C)c2ccccc2)n1-n1cccc1,> 49.1
9,Cc1ccc(S(=O)(=O)CCc2ccncc2)cc1,> 39.2
10,Cc1ccc(/C=C/C(=O)Oc2ccc(C#N)cc2)o1,< 0.5
11,CN(c1ccc(OCC(=O)NC2CCC(O)CC2)cc1)S(=O)(=O)c1ccc(Cl)cc1 (stereo unspecified),> 67.9
12,CC1CCCCN1Cc1c[nH]c2ccccc12 (stereo unspecified),28.8
13,O=C(COC(=O)c1ccc(Cl)nc1)NC1CCCCCC1,> 46.6
14,Cc1c(Cl)cccc1NC(=O)NCc1cccnc1,> 41.4
15,CC(=O)N1CCN(C(=O)CCCNC(=O)c2ccc(Cl)cc2)CC1,> 52.8
16,O=C(Nc1ccc(Cl)cc1F)C1CC1c1ccccc1 (stereo unspecified),1.4
17,Cc1nn(C)c(C)c1/C=C/C(=O)O,> 27
18,Cc1ccsc1/C=C1\SC(=S)N(CC2CCCO2)C1=O (stereo unspecified),< 0.7
19,CCN(CC(=O)NCc1cccs1)C(=O)c1cc(Br)ccc1O,> 59.6
20,Nn1c(SCC(=O)NCC2CCCO2)nnc1-c1ccco1 (stereo unspecified),> 48.5
21,CCOC(=O)c1cc2c(=O)[nH]ccc2nc1C(F)(F)F,> 42.9
22,CC1Cc2cc(/C=C3/SC(=S)NC3=O)ccc2O1 (stereo unspecified),9.3
23,COc1ccc(C)cc1NC(=O)CCNC(=O)c1ccco1,> 45.3
24,COc1ccc(/C=N/NC(=O)c2cccnc2)c(C(=O)O)c1OC,> 49.4
25,Cc1onc(-c2ccccc2)c1-c1ccc(S(N)(=O)=O)cc1,> 47.2

row,SMILES,solubility kinetic [µg/mL]
1,CCOC(=O)Cc1cc(=O)[nH]c(/N=C(\N)Nc2ccc(C)c(C)c2)n1,2.1
2,CC(C)(C)OC(=O)CN1c2cccc3cccc(c23)S1(=O)=O,14.9
3,Cc1cc(F)ccc1NCc1ccc([N+](=O)[O-])cc1,0.3
4,COC(=O)C1=C(C)N(C)C(=O)NC1c1ccc(O)c(Cl)c1 (stereo unspecified),> 46.6
5,O=c1[nH]c(/C=C/c2ccccc2Cl)c([N+](=O)[O-])c(=O)[nH]1,> 44.1
6,O=[N+]([O-])c1cccc(-c2cnc3ccccc3n2)c1,< 0.2
7,O=C(N/N=C/c1ccccc1)C(O)c1ccccc1 (stereo unspecified),> 38.1
8,O=C(Nc1ccccc1Cl)OCc1cncs1,35.1
9,CCOC(=O)c1oc2ccccc2c1NC(=O)C(C)(C)C,22.6
10,CN(C)c1ccc([N+](=O)[O-])cc1C(=O)NCC(c1ccco1)N(C)C (stereo unspecified),47.7
11,COc1ccc(C(=O)CSc2[nH]c(=O)cc(C(F)(F)F)c2C#N)cc1,> 55.2
12,CN(C(=O)CNc1ccccc1Cl)C1CCS(=O)(=O)C1 (stereo unspecified),> 47.5
13,COC(=O)c1ccccc1N=Nc1c(N)n[nH]c1N,> 39
14,O=C(CN1C(=O)NC2(CCCC2)C1=O)Nc1ccc(F)c(Cl)c1,> 51
15,CNC(=O)COC(=O)/C=C/c1ccco1,> 31.4
16,Cc1c(NC(=O)CSCc2ccccc2)cccc1C(=O)O,> 47.3
17,O=C(COC(=O)c1ccc([N+](=O)[O-])cc1)NCCC1=CCCCC1,3.1
18,CC(C)NC[C@H](O)COc1cccc2ccccc12.Cl,> 44.4
19,CN(C)C(C(=O)Nc1cc(Cl)cc(Cl)c1)c1ccccc1 (stereo unspecified),19.2
20,O=C(NCc1cccnc1)C(=O)Nc1nccs1,20.4
21,O=C(NCc1cccs1)C1CC(=O)N(Cc2ccccc2)C1 (stereo unspecified),> 47.2
